Like-named read-outs stand apart in the source and are kept apart here. Starred links: 1 amine or outer side, 2 acyl side, 3 side chain; linkers in the order of their positions; H or OH if unused. Positions of bridges follow the written chain, without caps; N, C: chain ends. Non-standard residues stand in square brackets, D forms with d. Residues, ends and D or L forms follow the SMILES beside them. *: point of attachment. Orn(4R-OH,5R-OCH2CH2NMe3+) = C[N+](C)(C)CCO[C@@H](N[*:3])[C@H](O)C[C@H](N[*:1])C(=O)[*:2]; pTerphenylCO(4''-OnC5H11) = CCCCCOc1ccc(-c2ccc(-c3ccc(C(=O)*)cc3)cc2)cc1; hTyr(3S-OH,4S-OH) = N[C@H](C(=O)O)[C@H](O)[C@@H](O)c1ccc(O)cc1; Pro(3S-OH,4S-Me) = C[C@H]1CN[C@H](C(=O)O)[C@H]1O; Hyp = O=C(O)[C@@H]1C[C@@H](O)CN1
Columns and labels:
[1] = Mouse pharmacokinetics, i.v. bolus; conditions: in vivo, iv, male ICR (CD-1) mice, single 1 mg/kg slow i.v. bolus, plasma, LC-MS/MS, noncompartmental from mean profile, n = 3/time point
Method: (§1) A single 1-mg/kg dose of CD101 or anidulafungin was administered by slow i.v. bolus (∼2 min) to male ICR (CD-1) mice (n = 3/group/time point). Blood samples (via cardiac puncture) were collected for plasma processing predose and at 0.083 (5 min), 0.5, 1, 4, 8, 24, 48, and 72 h postdose. PK profiles were generated based on mean results from the three animals sampled at each time point. In another study, a single 1-, 4-, or 16-mg/kg dose of CD101 was administered by i.p. injection to female ICR (CD-1) mice (n = 3/time point/dose), and blood samples (via cardiac puncture) were drawn for plasma processing at 1, 3, 6, 12, 24, 48, 72, and 96 h postdose.
(§2) For each of the pharmacokinetic studies, whole-blood samples (K3EDTA as anticoagulant) were collected and centrifuged within 30 min of collection. The resulting plasma was harvested and stored at −20°C until analysis. Tissue samples were homogenized by a bead-based homogenizer following the addition of deionized water to excised tissue in a 2:1 (vol/wt) ratio and stored at −20°C until analysis. Prior to analysis, plasma or homogenized tissue samples were quenched with acetonitrile (3:1, acetonitrile-plasma or tissue ratio) containing an appropriate internal standard (isotopically labeled d9-CD101 [mouse and rat] or a structural analog [dog, monkey, and chimpanzee]). Plasma and tissue homogenate concentrations (quantified against calibration standards processed the same way) were determined by reverse-phase, gradient liquid chromatography with tandem mass spectrometric detection (LC-MS/MS) using an AB-SCIEX API 3200Q/4000 mass spectrometry system. Calibration standard ranges were the following: 0.400 (lower limit of quantitation, [LLOQ]) to 200 μg/ml (CD101, mouse), 0.040 (LLOQ) to 10 μg/ml (anidulafungin, mouse), 0.002 (LLOQ) to 10 μg/ml (CD101, rat), 0.005 (LLOQ) to 10 μg/ml (anidulafungin, rat), 0.050 (LLOQ) to 10 μg/ml (CD101, dog), 0.020 (LLOQ) to 10 μg/ml (anidulafungin, dog), 0.010 (LLOQ) to 10 μg/ml (CD101, monkey), 0.001 (LLOQ) to 10 μg/ml (anidulafungin, monkey), 0.015 (LLOQ) to 10 μg/ml (CD101, chimpanzee), and 0.015 (LLOQ) to 10 μg/ml (anidulafungin, chimpanzee). When necessary, dilutions with blank matrix were made for samples that quantified above the upper limit of quantitation. The methods used in the analysis were qualified as fit for purpose: calibration standards were matrix matched with the exception that human plasma calibration standards were used to analyze chimpanzee plasma samples due to the rarity of blank chimpanzee plasma, and, for each analytical batch, triplicate calibration standards were included at the beginning, approximately in the middle, and at the end of the batch. Following analysis, quantitation was carried out by a calibration curve comprising the analyte/internal standard area ratio versus concentration. Analytical batch acceptance followed the general guidance that triplicate standards/quality controls be within ±20% for accuracy (percentage of nominal concentration) and ≤20% for precision (percent coefficient of variation).
(§3) Pharmacokinetic parameters were calculated by noncompartmental analysis using Phoenix WinNonlin (version 6.3; Pharsight, Mountain View, CA) from either individual or mean (mouse) concentration-time profiles. An unpaired t test was used to compare mean exposures from male and female rats.

[2] = Excretion in bile duct-cannulated rats; assay type: in vivo, Sprague-Dawley rats; conditions: for dose excreted at 120 h: bile duct-cannulated male Sprague-Dawley rats, single 5 mg/kg i.v. bolus, over 5 days, n = 3
Method: (§4) In one of three rat studies reported here, a single 5-, 15-, or 45-mg/kg dose of CD101 was administered by slow i.v. bolus (∼3 min) to Sprague-Dawley rats (n = 3 to 5/dose). Blood samples (via jugular vein catheter [JVC]) were drawn for plasma processing at 0.083, 0.25, 0.5, 1, 2, 4, 8, 24, 48, 120, 168, and 240 h after dosing. In the second rat study, conducted to assess tissue distribution, a single 5-mg/kg dose of CD101 was administered by slow i.v. bolus (∼3 min) to male Sprague-Dawley rats (n = 3 animals/time point). Blood samples (via cardiac puncture) were collected for plasma processing predose and at 0.083, 0.5, 1, 2, 4, 8, 24, 48, 72, 96, and 120 h postdose. In parallel with blood collection, animals were euthanized, and tissues (liver, lungs, kidneys, heart, spleen, and brain) were excised and frozen prior to analysis. In the third rat study, conducted to assess excretion, a single 5-mg/kg dose of CD101 was administered by slow i.v. bolus (∼3 min) to bile duct-cannulated male Sprague-Dawley rats (n = 3). Bile samples were collected from each animal into prelabeled bile collection tubes predose and at 0 to 8, 8 to 24, 24 to 48, 48 to 72, 72 to 96, and 96 to 120 h postdose; urine samples were collected from each animal at the same time points pre- and postdose.
as §2, with “Analytical batch acceptance followed the general guidance that triplicate standards/quality controls be within ±20% for accuracy (percentage of nominal concentration) and ≤20% for precision (percent coefficient of variation).” left out

[3] = Mouse pharmacokinetics, i.p. injection; conditions: in vivo, ip, female ICR (CD-1) mice, plasma, LC-MS/MS, noncompartmental from mean profile, n = 3/time point
Method: as §1, §2, §3

[4] = Rat tissue distribution after i.v. bolus; assay type: in vivo, Sprague-Dawley rats; conditions: for Kp: rat, iv
Method: as §4, §2, §3

[5] = human plasma; ref [9]; cited from earlier work
Excerpt: In the case of brain concentrations, there was little difference across all the collection intervals. Given the relatively low concentrations and small differences across times, measured concentrations may reflect contamination from residual whole blood during the collec ...

[6] = male Sprague-Dawley rats, single 5 mg/kg i.v. bolus
[7] = male Sprague-Dawley rats, single 5 mg/kg i.v. bolus, t = 120 h, LC-MS/MS, n = 3/time point

CCCCCOc1ccc(-c2ccc(-c3ccc(C(=O)N[C@H]4C[C@@H](O)[C@@H](OCC[N+](C)(C)C)NC(=O)[C@@H]5[C@@H](O)[C@@H](C)CN5C(=O)[C@H]([C@@H](C)O)NC(=O)[C@H]([C@H](O)[C@@H](O)c5ccc(O)cc5)NC(=O)[C@@H]5C[C@@H](O)CN5C(=O)[C@H]([C@@H](C)O)NC4=O)cc3)cc2)cc1 [CD101] ({pTerphenylCO(4''-OnC5H11)}-[Orn(4R-OH,5R-OCH2CH2NMe3+)]T[Hyp][hTyr(3S-OH,4S-OH)]T[Pro(3S-OH,4S-Me)]; lactam 1-C)
AUC(0-inf) [1]: 166 µg·h/mL | AUC(0-t) [1]: 87.3 µg·h/mL | Cmax [1]: 9290 ng/mL | Tmax [1]: 4.98 min | half-life [1]: 25.2 h | clearance ([1]; read-out: CL (clearance)): 0.102 mL/min/kg | Vd ([1]; read-out: Vss (volume of distribution at steady state)): 0.206 L/kg | dose excreted ([2]; male, Sprague-Dawley, rat, bile plus faeces, iv, bile duct-cannulated rats, 5 mg/kg i.v., bile plus feces): ~50% | biotransformation in plasma, bile samples, and excreta ([2]; nonradiolabeled material, rats, data not shown): no biotransformation was observed | dose excreted at 120 h ([2]; rat, faeces, iv, intact drug, read-out: mean cumulative amount excreted into feces, % of total dose): 27.7% | dose excreted at 120 h ([2]; rat, iv, intact drug, read-out: mean cumulative amount excreted into bile, % of total dose): 22.6% | dose excreted at 120 h ([2]; rat, urine, iv, read-out: total dose recovered in urine): 1.4% | AUC(0-inf) ([3]; single 1 mg/kg i.p.): 88.9 µg·h/mL | AUC(0-t) ([3]; single 1 mg/kg i.p.): 59.6 µg·h/mL | Cmax ([3]; single 1 mg/kg i.p.): 3970 ng/mL | Tmax ([3]; single 1 mg/kg i.p.): 1 h | half-life ([3]; single 1 mg/kg i.p.): 71.1 h | AUC(0-inf) ([3]; single 4 mg/kg i.p.): 313 µg·h/mL | AUC(0-t) ([3]; single 4 mg/kg i.p.): 245 µg·h/mL | Cmax ([3]; single 4 mg/kg i.p.): 13600 ng/mL | Tmax ([3]; single 4 mg/kg i.p.): 1 h | half-life ([3]; single 4 mg/kg i.p.): 44.5 h | AUC(0-inf) ([3]; single 16 mg/kg i.p.): 1200 µg·h/mL | AUC(0-t) ([3]; single 16 mg/kg i.p.): 902 µg·h/mL | Cmax ([3]; single 16 mg/kg i.p.): 52000 ng/mL | Tmax ([3]; single 16 mg/kg i.p.): 1.67 h | half-life ([3]; single 16 mg/kg i.p.): 60.8 h | Tmax in brain tissue [4, 6]: 48 h | Tmax in heart tissue [4, 6]: 8 h | time of maximum concentration in plasma and tissues except heart and brain (first sampling time) [4, 6]: 5 min | Mean AUC0–t in brain tissue [4, 7]: 145 µg·h/g | Mean AUC0–t in kidney tissue [4, 7]: 1,100 μg · hr/g | Kp ([4]; male, Sprague-Dawley, kidney, lung, liver, spleen / plasma, rats, 5 mg/kg i.v., read-out: Tissue/plasma AUC ratio, fold higher in major organs (kidney, lung, liver, spleen) than in plasma): 4 to 5 | Kp ([4]; brain / plasma, male Sprague-Dawley rats, single 5 mg/kg i.v. bolus, t = 120 h, tissue homogenate, LC-MS/MS, n = 3/time point, read-out: Tissue/plasma AUC0–t ratio, brain): 0.609 | Kp ([4]; heart / plasma, male Sprague-Dawley rats, single 5 mg/kg i.v. bolus, t = 120 h, tissue homogenate, LC-MS/MS, n = 3/time point, read-out: Tissue/plasma AUC0–t ratio, heart): 1.09 | Kp ([4]; kidney, male Sprague-Dawley rats, single 5 mg/kg i.v. bolus, t = 120 h, tissue homogenate, LC-MS/MS, n = 3/time point, read-out: Tissue/plasma AUC0–t ratio, kidney): 4.62 | Kp ([4]; liver, male Sprague-Dawley rats, single 5 mg/kg i.v. bolus, t = 120 h, tissue homogenate, LC-MS/MS, n = 3/time point, read-out: Tissue/plasma AUC0–t ratio, liver): 4.14 | Kp ([4]; lung, male Sprague-Dawley rats, single 5 mg/kg i.v. bolus, t = 120 h, tissue homogenate, LC-MS/MS, n = 3/time point, read-out: Tissue/plasma AUC0–t ratio, lung): 4.33 | Kp ([4]; spleen / plasma, male Sprague-Dawley rats, single 5 mg/kg i.v. bolus, t = 120 h, tissue homogenate, LC-MS/MS, n = 3/time point, read-out: Tissue/plasma AUC0–t ratio, spleen): 3.87 | protein bound [5]: 98.7%

— article PMC5365648, “Pharmacokinetics of the Novel Echinocandin CD101 in Multiple Animal Species” (Antimicrobial Agents and Chemotherapy, 2017)
